Like-named read-outs stand apart in the source and are kept apart here. Numbered stars: 1 amine (or outer) side, 2 acyl side, 3 side chain; on linkers, the order of the positions; unused ones are H or OH. Square brackets hold non-standard residues; d marks the D form. Side chains are listed from the residue outwards. * marks the point of attachment. C20 diacid = O=C(O)CCCCCCCCCCCCCCCCCCC(=O)*; C18 diacid = O=C(O)CCCCCCCCCCCCCCCCC(=O)*; C16 diacid = O=C(O)CCCCCCCCCCCCCCC(=O)*; γGlu = O=C(O)[C@H](CCC(=O)[*:2])N[*:1]; AEEA = NCCOCCOCC(=O)O; Aib = CC(C)(N)C(=O)O
What was measured:
Type in all cases: cell-based
[1] = target: T1, human GLP-1 receptor (hGLP-1R) (Homo sapiens, UniProt P43220); test: GLP-1 receptor assay, method A (CRE-luciferase reporter, BHK cells)
T1 construct: expressed in transfected cells
T1 sequence (P43220 24-463): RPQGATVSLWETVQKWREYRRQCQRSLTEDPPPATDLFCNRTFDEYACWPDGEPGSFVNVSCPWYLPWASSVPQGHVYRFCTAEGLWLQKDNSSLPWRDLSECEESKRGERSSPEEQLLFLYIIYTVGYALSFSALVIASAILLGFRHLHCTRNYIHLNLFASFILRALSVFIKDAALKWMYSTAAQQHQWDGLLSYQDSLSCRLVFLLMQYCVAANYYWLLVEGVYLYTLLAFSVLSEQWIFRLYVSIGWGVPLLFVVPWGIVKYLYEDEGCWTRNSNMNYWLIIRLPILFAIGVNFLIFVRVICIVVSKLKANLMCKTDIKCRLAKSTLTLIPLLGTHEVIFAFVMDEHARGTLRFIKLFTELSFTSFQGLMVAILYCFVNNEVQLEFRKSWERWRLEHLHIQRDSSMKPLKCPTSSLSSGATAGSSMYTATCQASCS
Summary of the method: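 BHK cells expressing hGLP-1R with CRE-luciferase reporter, stimulated 3 h at 37 °C, 5% CO2, in phenol-red-free DMEM with 10 mM HEPES, 1% ovalbumin, 0.1% Pluronic F-68, without or with 1% (w/v) HSA. Receptor activation read as luminescence after 30 min with steadylite Plus.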

[2] = target: T2, human GIP receptor (hGIPR) (Homo sapiens, UniProt P48546); test: GIP receptor assay, method A (CRE-luciferase reporter, BHK cells)
T2 construct: expressed in transfected cells
T2 sequence (P48546 22-466): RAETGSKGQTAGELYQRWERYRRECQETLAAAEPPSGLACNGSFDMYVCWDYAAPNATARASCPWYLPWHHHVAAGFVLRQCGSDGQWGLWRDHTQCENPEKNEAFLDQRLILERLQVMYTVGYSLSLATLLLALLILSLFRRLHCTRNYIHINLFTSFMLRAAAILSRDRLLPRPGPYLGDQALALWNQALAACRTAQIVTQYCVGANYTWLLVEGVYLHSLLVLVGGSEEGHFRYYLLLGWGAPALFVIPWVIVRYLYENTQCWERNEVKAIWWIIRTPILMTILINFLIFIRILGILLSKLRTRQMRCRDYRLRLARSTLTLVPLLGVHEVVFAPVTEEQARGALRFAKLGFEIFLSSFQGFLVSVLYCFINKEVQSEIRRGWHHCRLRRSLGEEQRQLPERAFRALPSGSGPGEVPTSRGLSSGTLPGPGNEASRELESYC
Summary of the method: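 Receptor activation was read as luciferase luminescence in hGIPR-expressing BHK CRE-Luc cells after 3 h compound exposure at 37 °C. Titrations (10-fold, 7 points, duplicate) ran in buffer containing 1% ovalbumin, with 1% HSA final or without; EC50 in pM fitted by four-parameter logistic model, Hill slope shared.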

[3] = target: T3, human amylin receptor (hAMYR3) (Homo sapiens, UniProt O60896+P30988); test: Amylin receptor assay, method A (CRE-luciferase reporter, BHK cells)
T3 construct: host or cells: BHK cells (Hollex-1 line expressing hCTR(a) and CRE-Luc), further transfected with human RAMP3
T3 sequence (P30988 25-474): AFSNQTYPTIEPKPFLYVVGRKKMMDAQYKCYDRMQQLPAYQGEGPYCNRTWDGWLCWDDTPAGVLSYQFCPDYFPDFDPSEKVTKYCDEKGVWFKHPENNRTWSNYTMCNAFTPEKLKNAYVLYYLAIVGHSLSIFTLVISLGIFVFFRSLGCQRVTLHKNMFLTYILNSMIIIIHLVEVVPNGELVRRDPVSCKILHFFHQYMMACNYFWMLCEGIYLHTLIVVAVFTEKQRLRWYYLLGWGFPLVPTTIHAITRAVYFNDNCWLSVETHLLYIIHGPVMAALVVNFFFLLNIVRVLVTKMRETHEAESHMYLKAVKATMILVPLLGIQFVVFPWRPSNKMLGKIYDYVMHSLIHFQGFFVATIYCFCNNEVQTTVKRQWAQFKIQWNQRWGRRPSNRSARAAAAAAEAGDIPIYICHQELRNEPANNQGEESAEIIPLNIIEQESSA
T3 sequence (O60896 24-148): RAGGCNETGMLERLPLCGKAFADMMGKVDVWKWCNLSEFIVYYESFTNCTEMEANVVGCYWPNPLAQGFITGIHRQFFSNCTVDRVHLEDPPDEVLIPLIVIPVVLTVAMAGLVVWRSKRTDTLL

[4] = hGLP-1R Potency, 1% HSA, EC50, method A, in the presence of 1% HSA
[5] = hGIPR Potency, 1% HSA, EC50, method A, in the presence of 1% HSA
[6] = method A, absence of HSA, read-out: hGIPR Potency, no HSA, EC50
[7] = hAMYR3 Potency, 1% HSA, EC50, method A, in the presence of 1% HSA
[8] = method A, absence of HSA, read-out: hAMYR3 Potency, no HSA, EC50
[9] = hGLP-1R Potency, no HSA, EC50, method A, absence of HSA
[10] = hGIPR Potency, no HSA, EC50, method A, absence of HSA
[11] = hAMYR3 Potency, no HSA, EC50, method A, absence of HSA
[12] = method A, absence of HSA, read-out: hGLP-1R Potency, no HSA, EC50

Row | Substance | EC50 [1, 4] [nM] | EC50 [2, 5] [nM] | EC50 [2, 6] [nM] | EC50 [3, 7] [nM] | EC50 [3, 8] [nM] | EC50 [1, 9] [nM] | EC50 [2, 10] [nM] | EC50 [3, 11] [nM] | EC50 [1, 12] [nM] | potency ratio (A/B): highest EC50 divided by lowest EC50 over hGLP-1R, hGIPR, hAMYR3 ([1]; absence of HSA, <50 = balanced tri-agonist)
1 | H[Aib]HGTFTSDYSILLEEQAAREFIEWLLAGGPSK([AEEA-AEEA-γGlu-C16 diacid])GAPPPSGGGEASELSTAALGRLSAELHELATLPRTETGSGSP-NH2 [Compound 12] | 0.0102 | 0.0591 | 0.00262 | 0.055 | 0.00623 |  |  |  |  | 
2 | H[Aib]HGTFTSDYSILLEEQAAREFIEWLLAGGPSK([AEEA-AEEA-γGlu-C16 diacid])GAPPPSGGGEASHLSTAQTARLSAELHRLADLPRTETGSGSP-NH2 [Compound 61] | 0.0147 | 0.016 |  | 0.0307 |  | 0.00279 | 0.0013 | 0.00297 |  | 
3 | H[Aib]HGTFTSDYSILLEEQAAREFIEWLLAGGPSK([AEEA-AEEA-γGlu-C16 diacid])GEASELSTAALGRLSAELHRLATLPRTETGSGSP-NH2 [Compound 17] | 0.0131 | 0.0369 | 0.00504 | 0.0336 | 0.00513 |  |  |  | 0.00272 | 
4 | H[Aib]HGTFTSDYSILLEEQAAREFIEWLLAGGPSK([AEEA-AEEA-γGlu-C16 diacid])GEASQLSTAALGRLSAELHRLADLPRTETGSGSP-NH2 [Compound 62] | 0.0115 | 0.0472 |  | 0.0288 |  | 0.00413 | 0.00226 | 0.00335 |  | 
5 | H[Aib]HGTFTSDYSILLEEQAAREFIEWLLAGGPSK([AEEA-AEEA-γGlu-C18 diacid])GAPPPSGGGEASELSTAALGRLSAELHELATLPRTETGSGSP-NH2 [Compound 15] | 0.103 | 0.356 | 0.0032 | 0.0822 | 0.00501 |  |  |  | 0.00141 | 
6 | H[Aib]HGTFTSDYSILLEEQAAREFIEWLLAGGPSK([AEEA-AEEA-γGlu-C18 diacid])GAPPPSGGGEASHLSTAQTARLSAELHQLATLPRTETGSGSP-NH2 [compound 101] | 0.179 | 0.129 | 0.00187 | 0.0955 | 0.00308 |  |  |  | 0.00324 | 
7 | H[Aib]HGTFTSDYSILLEEQAAREFIEWLLAGGPSK([AEEA-AEEA-γGlu-C18 diacid])GAPPPSGGGGASELSTAALGRLSAELHRLATLPRTETGSGSP-NH2 [Compound 14] | 0.0759 | 0.254 | 0.00584 | 0.0334 | 0.00221 |  |  |  | 0.00205 | 
8 | H[Aib]HGTFTSDYSILLEEQAAREFIEWLLAGGPSK([AEEA-AEEA-γGlu-C18 diacid])GEASHLSTAQTARLSAELHELATLPRTETGSGSP-NH2 [Compound 36] | 0.208 | 0.226 | 0.00196 | 0.137 | 0.00384 |  |  |  | 0.00319 | 
9 | H[Aib]HGTFTSDYSILLEEQAAREFIEWLLAGGPSK([AEEA-AEEA-γGlu-C18 diacid])GEASQLSTAALGRLSAELHQLATLPRTETGSGSP-NH2 [Compound 64] | 0.0678 | 0.1 | 0.00203 | 0.109 | 0.00191 |  |  |  | 0.00371 | 
10 | H[Aib]HGTFTSDYSILLEEQAAREFIEWLLAGGPSK([AEEA-AEEA-γGlu-C18 diacid])GEASQLSTAALGRLSAELHTLATLPRTETGSGSP-NH2 [Compound 63] | 0.101 | 0.0632 | 0.0016 | 0.0703 | 0.00286 |  |  |  | 0.00477 | 
11 | H[Aib]HGTFTSDYSILLEEQAAREFIEWLLAGGPSK([AEEA-AEEA-γGlu-C20 diacid])GAPPPSGGGEASELSTAALGRLSAELHELATLPRTETGSGSP-NH2 [Compound 16] | 0.238 | 0.485 | 0.00427 | 0.166 | 0.0057 |  |  |  | 0.00274 | 
12 | H[Aib]HGTFTSDYSILLEEQAAREFIEWLLAGGPSRGEASHLSTAQTQRLSAELHK([AEEA-AEEA-γGlu-C18 diacid])LATLPRTETGSGSP-NH2 [Compound 69] | 0.0204 | 0.00805 | 0.0019 | 0.0789 | 0.00343 |  |  |  | 0.00345 | 
13 | H[Aib]HGTFTSDYSILLEEQAAREFIEWLLAGGPSSGAGQAPGQAPGASHLSTAQTQRLSAELHRLK([AEEA-AEEA-γGlu-C18 diacid])TLPRTETGSGSP-NH2 [Compound 91] | 0.0174 | 0.00931 | 0.00321 | 0.0288 | 0.00226 |  |  |  | 0.00379 | 
14 | H[Aib]HGTFTSDYSILLEEQAAREFIEWLLAGGPSSGAGQAPGQAPGASHLSTAQTQRLSAK([AEEA-AEEA-γGlu-C18 diacid])LHRLATLPRTETGSGSP-NH2 [Compound 78] | 0.0178 | 0.0104 | 0.00349 | 0.0171 | 0.00183 |  |  |  | 0.00403 | 
15 | H[Aib]HGTFTSDYSILLEEQAAREFIEWLLAGGPSSGAGQAPGQAPLASHLSTAQTQRLSAELHK([AEEA-AEEA-γGlu-C18 diacid])LATLPRTETGSGSP-NH2 [Compound 93] | 0.0164 | 0.00858 | 0.00254 | 0.0664 | 0.00223 |  |  |  | 0.00411 | 
16 | H[Aib]HGTFTSDYSILLEEQAAREFIEWLLAGGPSSGEASHLSTAALGRLSAELHRLK([AEEA-AEEA-γGlu-C18 diacid])TLPRTETGSGSP-NH2 [Compound 89] | 0.0295 | 0.0306 | 0.00647 | 0.0397 | 0.00312 |  |  |  | 0.00386 | 
17 | H[Aib]HGTFTSDYSILLEEQAAREFIEWLLAGGPSSGEASHLSTAALGRLSAK([AEEA-AEEA-γGlu-C18 diacid])LHRLATLPRTETGSGSP-NH2 [Compound 87] | 0.0393 | 0.0386 | 0.00726 | 0.0365 | 0.00499 |  |  |  | 0.00849 | 
18 | H[Aib]HGTFTSDYSILLEEQAAREFIEWLLAGGPSSGEASHLSTAQTQRLSAK([AEEA-AEEA-γGlu-C18 diacid])LHRLATLPRTETGSGSP-NH2 [Compound 82] | 0.0242 | 0.0191 | 0.0037 | 0.038 | 0.00326 |  |  |  | 0.00345 | 
19 | Y[Aib]EGTFTSDYSILLEEQAAREFIEWLLAGGPSK([AEEA-AEEA-γGlu-C16 diacid])GAPPPSGGGEASELSTAALGRLSAELHELATLPRTETGSGSP-NH2 [compound 10] | 0.246 | 0.0424 | 0.00211 | 0.175 | 0.0068 |  |  |  | 0.0138 | 7
20 | Y[Aib]EGTFTSDYSILLEEQAAREFIEWLLAGGPSK([AEEA-AEEA-γGlu-C16 diacid])GEASELSTAALGRLSAELHELATLPRTETGSGSP-NH2 [Compound 11] | 0.204 | 0.0583 | 0.00169 | 0.211 | 0.0128 |  |  |  | 0.0104 | 
